Data published in publication PMC2667896 (Archives of Drug Information, 2009).
Read-outs that look alike come from different tables or passages of the source.

Columns and labels:
[1] = Steady-state plasma pharmacokinetics in healthy volunteers; format: in vivo, human
CYP3A4 = conditions: cited from earlier work
[2] = cited from earlier work
[3] = Day 11, Arm 1, participant 2, saquinavir/ritonavir 1,000/100 mg orally twice daily
[4] = Day 11, Arm 1, participant 4, saquinavir/ritonavir 1,000/100 mg orally twice daily
[5] = Day 12, Arm 1, participant 2, saquinavir/ritonavir 1,000/100 mg orally twice daily
[6] = Day 12, Arm 1, participant 4, saquinavir/ritonavir 1,000/100 mg orally twice daily
[7] = Day 13, Arm 1, participant 2, saquinavir/ritonavir 1,000/100 mg orally twice daily
[8] = Day 13, Arm 1, participant 4, saquinavir/ritonavir 1,000/100 mg orally twice daily

SMILES	Individual trough plasma concentration [1, 3]	Individual trough plasma concentration [1, 4]	Individual trough plasma concentration [1, 5]	Individual trough plasma concentration [1, 6]	Individual trough plasma concentration [1, 7]	Individual trough plasma concentration [1, 8]	half-life ([1]; human, plasma, po)	Tmax ([1]; steady state (day 14), Arm 1, participant 2, saquinavir/ritonavir 1,000/100 mg orally twice daily)	Tmax ([1]; human, plasma, po)	Effect on CYP3A4 (CYP3A4; saquinavir)	Individual trough plasma concentration ([1]; Day 11, Arm 2, participant 1, efavirenz 600 mg orally once daily)	Individual trough plasma concentration ([1]; Day 12, Arm 2, participant 1, efavirenz 600 mg orally once daily)	Individual trough plasma concentration ([1]; Day 13, Arm 2, participant 1, efavirenz 600 mg orally once daily)	AUC ([1]; human, plasma, po, 600 mg)	Cmax ([1]; human, plasma, po, 600 mg)	Tmax ([1]; human, plasma, po, 600 mg)	half-life ([1]; human, plasma, po, 600 mg)	Effect on CYP3A4 (CYP3A4; efavirenz)	half-life [2]
CC(C)c1nc(CN(C)C(=O)N[C@H](C(=O)N[C@@H](Cc2ccccc2)C[C@H](O)[C@H](Cc2ccccc2)NC(=O)OCc2cncs2)C(C)C)cs1 [Ritonavir]	57.8 ng/mL	137 ng/mL	83.8 ng/mL	163 ng/mL	86.2 ng/mL	251 ng/mL	212 min	1.00 h											
CC(C)(C)NC(=O)[C@@H]1C[C@@H]2CCCC[C@@H]2CN1C[C@@H](O)[C@H](Cc1ccccc1)NC(=O)[C@H](CC(N)=O)NC(=O)c1ccc2ccccc2n1 [Saquinavir]	337 ng/mL	602 ng/mL	640 ng/mL	700 ng/mL	867 ng/mL	1,220 ng/mL	359 min		2 h	weak CYP3A4 inhibitor									
O=C1Nc2ccc(Cl)cc2[C@@](C#CC2CC2)(C(F)(F)F)O1 [Efavirenz]											1,080 ng/mL	1,050 ng/mL	1,060 ng/mL	42500 ng·h/mL	4780 ng/mL	2 h	1590 min	potent inducer	40 to 55 h
